Laboratory results from PubChem BioAssay (NCI).
Several values for one entry are separate records, joined by “and”; a condition that tells them apart may be missing. Equal values may be shown once.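 Five compound concentrations were applied to cells in 96-well plates for 48 hours; endpoints were derived by simple linear interpolation of the resulting dose-response curve. The concentration for 50% growth inhibition is given as GI50. TGI denotes the concentration required for complete inhibition of growth.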

Key:
Assay in all cases: NCI tumour cell line growth inhibition, 48 h
[1] = system: SR leukemia
[2] = system: U251 CNS
[3] = system: HCT-116 colon
[4] = system: MDA-MB-231 breast
[5] = system: MDA-N
[6] = system: NCI-H522 lung
[7] = system: SF-295 CNS
[8] = system: SF-539 CNS
[9] = system: UO-31 renal
[10] = system: NCI/ADR-RES ovarian

Row | SMILES | TGI [1] | TGI [2] | TGI [3] | TGI [4] | TGI [5] | TGI [6] | TGI [7] | TGI [8] | TGI [9] | TGI [10] | GI50 [1] | GI50 [6] | GI50 [7] | GI50 [8]
1 | O=C(/C=C/c1ccc(O)c(O)c1)OCCc1cccc2ccccc12 | 5.64 µM | 21.7 µM | 14.6 µM | 7.56 µM | 5.26 µM | 4.17 µM | 17.9 µM | 18.2 µM | 18.4 µM | 29.4 µM | – | – | – | –
2 | N#Cc1c(-c2ccccc2)/c(=C\O)c(=O)n2c1nc1ccccc12 | > 100 µM | > 100 µM | > 100 µM | > 100 µM | > 100 µM | > 100 µM | > 100 µM | > 100 µM | > 100 µM | > 100 µM | – | – | – | –
3 | c1ccc(N=C2SC(=NNc3ccccc3)SC2=Nc2ccccc2)cc1 | > 100 µM | > 100 µM | > 100 µM | > 100 µM | > 100 µM | > 100 µM | > 100 µM | > 100 µM | > 100 µM | > 100 µM | – | – | – | –
4 | Cc1nc2c(o1)C(=O)c1ccccc1/C2=N/c1ccccn1 | 97.3 µM | 30.4 µM | 41.8 µM | 69.3 µM | 32.6 µM | 35.9 µM | > 100 µM | 33.2 µM | 39.3 µM | 56.9 µM | – | – | – | –
5 | CN1CCC2(CC1)C(=O)N(N1CCCCCC1)C(=O)N2c1ccccc1 | > 100 µM | > 100 µM | > 100 µM | > 100 µM | > 100 µM | > 100 µM | > 100 µM | > 100 µM | > 100 µM | > 100 µM | – | – | – | –
6 | C1COC(NC(C2CC2)C2CC2)=N1 | > 100 µM | > 100 µM | > 100 µM | > 100 µM | > 100 µM | > 100 µM | > 100 µM | > 100 µM | > 100 µM | > 100 µM | – | – | – | –
7 | COc1cc(OC)c2c(c1OC)OCC(Cc1ccc(O)cc1)C2=O (stereo not drawn) | > 25 µM | > 25 µM | > 25 µM | > 25 µM | > 25 µM | > 25 µM | > 25 µM | > 25 µM | > 25 µM | > 25 µM | – | – | – | –
8 | NC1C/C(=N\O)c2c(I)sc(I)c21 (stereo not drawn) | > 100 µM | 37.4 µM | 15.2 µM | 39.3 µM | > 54 µM | 3.7 µM | 31.8 µM | 20.3 µM | 30.1 µM | 43.1 µM | – | – | – | –
9 | O=C(Cn1nc(Br)c(Br)c1Br)c1ccccc1 | 25.9 µM | > 100 µM | 38.6 µM | 84.5 µM | > 100 µM | 83.6 µM | 91.5 µM | 45.1 µM | 57 µM | 93.1 µM | – | – | – | –
10 | CC(=O)Nc1ccc(CNc2cc(=O)[nH]c(=O)[nH]2)cc1 | > 100 µM | > 100 µM | > 100 µM | > 100 µM | > 100 µM | > 100 µM | > 100 µM | > 100 µM | > 100 µM | > 100 µM | – | – | – | –
11 | O=C(c1cc(Cl)cc(Cl)c1)N(C(=S)OC12CC3CC(CC(C3)C1)C2)c1ccccc1 | > 100 µM | > 100 µM | > 100 µM | > 100 µM | > 100 µM | 62.3 µM | > 100 µM | > 100 µM | 82.8 µM | > 100 µM | – | – | – | –
12 | CC(C)C(C/C=C1/CC(CO)(COC(=O)CC(C(C)C)C(C)C)OC1=O)C(C)C (stereo not drawn) | > 50.3 µM | 25.3 µM | 35.1 µM | 18.5 µM | 29.6 µM | 26.5 µM | 16.5 µM | 23.8 µM | 19.9 µM | 31.6 µM | – | – | – | –
13 | O=C(CN1CCN(C(=O)OCc2ccccc2)CCN(CC(=O)N2CCCCC2)CCN(C(=O)OCc2ccccc2)CC1)N1CCCCC1 | 11.8 µM | 34.4 µM | 18.5 µM | 33.7 µM | 29.7 µM | 19 µM | 41.1 µM | 27.8 µM | 30.6 µM | 32.5 µM | – | – | – | –
14 | N#CCC(=O)Nn1c(CC#N)nnc1Cc1ccccc1 | > 100 µM | > 100 µM | > 100 µM | > 100 µM | > 100 µM | > 100 µM | > 100 µM | > 100 µM | > 100 µM | > 100 µM | – | – | – | –
15 | COc1cc([C@@H]2c3cc4c(cc3[C@@H](NCCNCCO)[C@H]3COC(=O)[C@H]23)OCO4)cc(OC)c1O | – | 5.35 µM | 44 µM and 32.9 µM | 21.6 µM | 21.4 µM and 28.8 µM | > 22 µM and 6.55 µM | > 29 µM and 7.12 µM | 3.13 µM and 1.04 µM | 50 µM and 39.9 µM | > 100 µM | 0.303 µM | 2.22 µM and 1.05 µM | 1.61 µM and 0.719 µM | 0.702 µM and 0.171 µM
16 | COC(=O)C(CCC1C=CCC1)N=Cc1ccccc1 (stereo not drawn) | > 100 µM | > 100 µM | > 100 µM | > 100 µM | > 100 µM | > 100 µM | > 100 µM | > 100 µM | > 100 µM | > 100 µM | – | – | – | –
